Data from patent US20020013478A1, “Calanolide analogues and methods of their use” (Sarawak Medichem Pharmaceuticals,Inc., priority 1994, published 2002).
In brackets after ≈: the same amount, converted by molar mass. Where two headings read alike, the source gives them in different places.

How the values were obtained:
[1] = test system: human foreskin fibroblast cells; test: Toxicity run with the HCMV assay, human foreskin fibroblast cells; type: cell-based; settings: Table II
Outline: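 Human foreskin fibroblasts exposed to drug at 37 °C in CO2, either 72 h followed by Coulter Counter counts (triplicate counts, three replicate wells), or seven days followed by dye staining for 1 h and optical density at 550 nm.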

EBV = EBV assay: superinfection of Raji or Daudi cells with P3HR-1, immunofluorescence for EA and VCA; type: cell-based, Epstein-Barr virus
Outline: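 Raji cells (Burkitt's lymphoma, 60 EBV genomes/cell) or Daudi cells were superinfected with P3HR-1 EBV, and drugs were added after 45 min adsorption at 37 °C and washing. After 48 h, smears were stained with monoclonal antibodies to EA components and VCA plus fluorescein anti-mouse Ig. Fluorescence-positive cells were counted to give total EA- or VCA-positive cells per culture.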

2.2.15 cells = test: Toxicity in 2.2.15 cells, neutral red dye uptake; type: cell-based, human; settings: Table II, read-out: HBV IC50
Protocol: Cells of 2.2.15 were grown to confluence in 96-well flat-bottomed tissue culture plates and treated with compounds (in 0.2 mL culture medium/well) as described above. Four concentrations of each compound were assayed, each in triplicate cultures, in 3- to 10-fold steps. Untreated control cultures were maintained on each 96-well plate. On each 96-well plate, wells containing no cells were used to correct for light scattering.

measles = test: Measles virus inhibition of viral CPE in BSC-1 cells; type: cell-based; settings: for EC50: Table II footnote g, read-out: Others EC50, against measles
HIV-1 = test: microbe, parasite or virus in culture; settings: Human immunodeficiency virus 1, CEM-SS

Row | SMILES | HCMV IC50 [1] | EBV EC50 (EBV; Table II) | IC50 (2.2.15 cells) | EC50 (measles) | IC50 ([1]; Homo sapiens, Fibroblast) | EC50 (HIV-1) | EC50 (EBV; human gammaherpesvirus 4, Table II) | potency against EBV (EBV; text summary of Table II) | IC50 (2.2.15 cells; Homo sapiens) | EC50 (measles; Measles morbillivirus, BSC-1) | potency against measles (measles; text summary of Table II)
1 | CCCc1cc(=O)oc2c3c(c4c(c12)OC(C)(C)C=C4)OC(C)C(C)C3=O (racemic) [(±)-7a] | 19.8 µg/mL | >50 µg/mL | 32 µM | 13.7 µM |  |  |  |  |  |  | 
2 | CCCc1cc(=O)oc2c3c(c4c(c12)OC(C)(C)C=C4)O[C@H](C)[C@@H](C)C3=O [(+)-7, 10(R),11(R)-trans-Dihydro6,6,10,11-tetramethyl-4-propyl-2H,6H,12H-benzo [1,2-b:3,4-b′:5,6-b″]tripyran-2,12-dione] |  |  |  |  | 47.9 µg/mL (≈ 130 µM) | 680 nM | 0.94 µg/mL (≈ 2.55 µM) | very potent | 57 µM | 3 µM | potent
